Source: ChEMBL document CHEMBL1146309, “Tetrahydrobenzotriazines as a new class of nematocide” (2007)

Tested on: Caenorhabditis elegans
Experiment: Nematocidal activity against Caenorhabditis elegans assessed as revised death rate after 24 to 48 hrs
Assay type: functional
Design: concentration or dose not given beside the values

SMILES	Activity [%]
CC1=CC=CC2(C)CN(C)N(C(=O)N(C)c3ccccc3)N=C12 (stereo unspecified)	74.2
CC1=CC=CC2(C)CN(C)N(C(=S)Nc3ccccc3)N=C12 (stereo unspecified)	20.9
CC1=CC=CC2(C)CN(C)N(C(=S)N(C)c3ccccc3)N=C12 (stereo unspecified)	100
CC(=O)N1N=C2C(C)=CC=CC2(C)CN1C (stereo unspecified)	100
CCCCCCCC(=O)N1N=C2C(C)=CC=CC2(C)CN1C (stereo unspecified)	10.3
CCCCCCCCCC(=O)N1N=C2C(C)=CC=CC2(C)CN1C (stereo unspecified)	64.6
CCCCCCCCCCC(=O)N1N=C2C(C)=CC=CC2(C)CN1C (stereo unspecified)	20.3
CCCCCCCCCCCC(=O)N1N=C2C(C)=CC=CC2(C)CN1C (stereo unspecified)	17.2
CCCCCCCCC(=O)N1N=C2C(C)=CC=CC2(C)CN1C (stereo unspecified)	97
CC1=CC=CC2(C)CN(C)N(C(=O)Nc3ccccc3)N=C12 (stereo unspecified)	43.8
CN=C=S [METHYLISOTHIOCYANATE]	100
